In patent US9957251B2 (Takeda Pharmaceutical Company Limited, priority 2014, dated 2018):

Experiments:
CDK19 (CDC2L6/CycC) = biological target: T1, CDK19 (CDC2L6/CycC) (Homo sapiens, UniProt Q9BWU1); assay: CDK19 inhibitory activity (TR-FRET, Kinase Tracer-236 displacement); assay type: binding; conditions: 1 μM of the test compound; for inhibition at 1 µM: read-out: Percent inhibition of CDK19 activity (%)
T1 construct: purchased Carna Biosciences
Outline: (§1)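 Binding assay measuring displacement of Kinase Tracer-236 (60 nM in the added mix) by compound, using Eu-cryptate anti-GST antibody with CDK8/CycC (84 ng/mL) or CDC2L6/CycC (87 ng/mL) solutions. After 1 h at room temperature, TR-FRET read at 615 and 665 nm (excitation 320 nm).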

[1] = test system: human multiple myeloma RPMI8226 cells; assay: Inhibitory activity against human multiple myeloma RPMI8226 cell growth (CellTiter-Glo); assay type: cell-based; conditions: 1 μM of the test compound, cultured for 8 days; for inhibition at 1 µM: Homo sapiens, RPMI-8226, 192 h, read-out: Percent inhibition of RPMI8226 cell growth (%)
Outline: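 RPMI8226 cells (300/well) cultured 1 day at 37 °C, 5% CO2, then given compound at 1 μM for 8 days. ATP luminescence (CellTiter-Glo) read; percent inhibition relative to 0.1% DMSO wells.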

CDK8/CycC = biological target: T2, CDK8/CycC (Homo sapiens, UniProt P49336); assay: CDK8 inhibitory activity (TR-FRET, Kinase Tracer-236 displacement); assay type: binding; conditions: 1 μM of the test compound; for inhibition at 1 µM: read-out: Percent inhibition of CDK8 activity (%)
T2 construct: purchased Carna Biosciences
Outline: as §1

T1 sequence (Q9BWU1 whole entry): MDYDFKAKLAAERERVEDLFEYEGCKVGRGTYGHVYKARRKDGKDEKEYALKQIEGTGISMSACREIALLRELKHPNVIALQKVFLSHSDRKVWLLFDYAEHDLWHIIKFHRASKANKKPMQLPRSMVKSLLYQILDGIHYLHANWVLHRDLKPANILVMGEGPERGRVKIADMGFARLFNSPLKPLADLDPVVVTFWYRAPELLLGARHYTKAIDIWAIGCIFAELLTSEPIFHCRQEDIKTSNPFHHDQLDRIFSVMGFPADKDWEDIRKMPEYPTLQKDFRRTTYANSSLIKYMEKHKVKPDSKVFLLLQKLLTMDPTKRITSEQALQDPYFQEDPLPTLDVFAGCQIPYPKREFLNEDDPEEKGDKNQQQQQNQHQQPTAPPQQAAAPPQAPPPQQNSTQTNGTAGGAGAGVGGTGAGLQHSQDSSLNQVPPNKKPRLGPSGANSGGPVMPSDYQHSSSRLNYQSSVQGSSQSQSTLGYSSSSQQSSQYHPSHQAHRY
T1 sequence (P24863 whole entry partner): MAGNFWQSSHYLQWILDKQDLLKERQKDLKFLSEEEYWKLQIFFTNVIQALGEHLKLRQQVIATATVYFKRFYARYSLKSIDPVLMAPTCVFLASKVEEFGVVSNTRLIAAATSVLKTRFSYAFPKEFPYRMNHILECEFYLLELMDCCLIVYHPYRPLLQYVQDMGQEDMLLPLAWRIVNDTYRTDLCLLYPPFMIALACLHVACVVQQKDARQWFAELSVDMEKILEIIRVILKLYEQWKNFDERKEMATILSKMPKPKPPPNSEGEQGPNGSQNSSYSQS
T2 sequence (P49336 whole entry): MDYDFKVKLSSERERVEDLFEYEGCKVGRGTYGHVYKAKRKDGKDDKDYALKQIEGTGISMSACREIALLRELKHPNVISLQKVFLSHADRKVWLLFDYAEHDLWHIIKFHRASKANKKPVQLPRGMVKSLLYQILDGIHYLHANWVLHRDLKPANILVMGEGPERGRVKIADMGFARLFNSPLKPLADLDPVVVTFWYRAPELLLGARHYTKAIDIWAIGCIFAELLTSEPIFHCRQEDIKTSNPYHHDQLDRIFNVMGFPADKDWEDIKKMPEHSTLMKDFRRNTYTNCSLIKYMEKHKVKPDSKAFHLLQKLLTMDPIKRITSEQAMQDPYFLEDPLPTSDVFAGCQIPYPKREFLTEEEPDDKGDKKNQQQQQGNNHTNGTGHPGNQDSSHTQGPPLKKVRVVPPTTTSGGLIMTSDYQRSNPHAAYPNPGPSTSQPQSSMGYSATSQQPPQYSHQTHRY
T2 sequence (P24863 whole entry partner): as the sequence (P24863 whole entry partner) above

Row | SMILES | inhibition at 1 µM (CDK19 (CDC2L6/CycC)) [%] | inhibition at 1 µM (CDK8/CycC) [%] | Percent inhibition of CDK19 activity (%) (CDK19 (CDC2L6/CycC); 1 µM) | Percent inhibition of CDK8 activity (%) (CDK8/CycC; 1 µM) | inhibition at 1 µM [1] [%] | Percent inhibition of RPMI8226 cell growth (%) ([1]; 1 µM)
1 | CC(c1ccc(NC(=O)/C=C/c2cnccc2-c2cnn(C)c2)cc1)N1CCOCC1 (stereo not drawn) [Example 43, (2E)-3-(4-(1-methyl-1H-pyrazol-4-yl)pyridin-3-yl)-N-(4-(1-(morpholin-4-yl)ethyl)phenyl)acrylamide] | 98 | 96 |  |  | 57 | 
2 | COc1ccc(-c2ccncc2/C=C/C(=O)Nc2ccc(CN3CCOCC3)cc2)s1 [Example 220, (2E)-3-(4-(5-methoxy-2-thienyl)pyridin-3-yl)-N-(4-(morpholin-4-ylmethyl)phenyl)acrylamide] | 96 | 93 |  |  | 58 | 
3 | O=C(/C=C/c1cnccc1-c1cnn(CC2CC2)c1)Nc1ccc(CCN2CCOCC2)cc1 [Example 108, (2E)-3-(4-(1-(cyclopropylmethyl)-1H-pyrazol-4-yl)pyridin-3-yl)-N-(4-(2-(morpholin-4-yl)ethyl)phenyl)acrylamide] | 97 | 94 |  |  | 58 | 
4 | Cn1cc(-c2ccncc2/C=C/C(=O)Nc2ccc3ncsc3c2)cn1 [Example 169, (2E)-N-(1,3-benzothiazol-6-yl)-3-(4-(1-methyl-1H-pyrazol-4-yl)pyridin-3-yl)acrylamide] | 90 | 94 |  |  | 53 | 
5 | Cn1cc(-c2c(F)cncc2/C=C/C(=O)Nc2ccc3c(c2)CN(CC(C)(F)F)C3)cn1 [Example 351, (2E)-N-(2-(2,2-difluoropropyl)-2,3-dihydro-1H-isoindol-5-yl)-3-(5-fluoro-4-(1-methyl-1H-pyrazol-4-yl)pyridin-3-yl)acrylamide] | 100 | 106 |  |  | 63 | 
6 | Cn1cc(-c2ccncc2/C=C/C(=O)Nc2ccc(CCN3CCOCC3)cc2)cn1 [Example 91, (2E)-3-(4-(1-Methyl-1H-pyrazol-4-yl)pyridin-3-yl)-N-(4-(2-(morpholin-4-yl)ethyl)phenyl)acrylamide] | 101 | 96 |  |  | 59 | 
7 | Cn1cc(-c2ccncc2/C=C/C(=O)Nc2ccc(CN3CCOCC3)c(C#N)c2)cn1 [Example 150, (2E)-N-(3-Cyano-4-(morpholin-4-ylmethyl)phenyl)-3-(4-(1-methyl-1H-pyrazol-4-yl)pyridin-3-yl)acrylamide] | 99 | 100 |  |  | 54 | 
8 | Cn1cc(-c2ccncc2/C=C/C(=O)Nc2cc(F)c(CN3CCOCC3)cc2F)cn1 [Example 237, (2E)-N-(2,5-difluoro-4-(morpholin-4-ylmethyl)phenyl)-3-(4-(1-methyl-1H-pyrazol-4-yl)pyridin-3-yl)acrylamide] | 91 | 94 |  |  | 66 | 
9 | Cn1cc(-c2ccncc2/C=C/C(=O)Nc2ccc(CN3CCC(F)(F)C3)cc2)cn1 [Example 68, (2E)-N-(4-((3,3-difluoropyrrolidin-1-yl)methyl)phenyl)-3-(4-(1-methyl-1H-pyrazol-4-yl)pyridin-3-yl)acrylamide] | 100 | 99 |  |  | 62 | 
10 | O=C(/C=C/c1cnccc1-c1cnn(CC2(F)CC2)c1)Nc1ccc(CN2CCOCC2)cc1 [Example 288, (2E)-3-(4-(1-((1-Fluorocyclopropyl)methyl)-1H-pyrazol-4-yl)pyridin-3-yl)-N-(4-(morpholin-4-ylmethyl)phenyl)acrylamide] | 101 | 99 |  |  | 57 | 
11 | Cc1ccc(NC(=O)/C=C/c2cnccc2-c2cn[nH]c2)c(F)c1 [Example 296, (2E)-N-(2-fluoro-4-methylphenyl)-3-(4-(1H-pyrazol-4-yl)pyridin-3-yl)acrylamide] | 97 | 100 |  |  | 59 | 
12 | Cn1cc(-c2ccncc2/C=C/C(=O)Nc2ccc3c(c2)CCCC3=O)cn1 [Example 191, (2E)-3-(4-(1-methyl-1H-pyrazol-4-yl)pyridin-3-yl)-N-(5-oxo-5,6,7,8-tetrahydronaphthalen-2-yl)acrylamide] | 92 | 96 |  |  | 56 | 
13 | Cn1cc(-c2ccncc2/C=C/C(=O)Nc2ccc(CN3CC(F)(F)OC(F)(F)C3)cc2)cn1 [Example 58] | 98 | 97 |  |  | 55 | 
14 | O=C(/C=C/c1cnccc1-c1cnn(C(F)F)c1)Nc1ccc(CN2CCOCC2)cc1 [Example 98, (2E)-3-(4-(1-(Difluoromethyl)-1H-pyrazol-4-yl)pyridin-3-yl)-N-(4-(morpholin-4-ylmethyl)phenyl)acrylamide] | 100 | 98 |  |  | 53 | 
15 | O=C(/C=C/c1cnccc1-c1ccc2[nH]cnc2c1)Nc1ccc(CN2CCOCC2)cc1 [Example 241, (2E)-3-(4-(1H-benzimidazol-5-yl)pyridin-3-yl)-N-(4-(morpholin-4-ylmethyl)phenyl)acrylamide] | 101 | 99 |  |  | 66 | 
16 | Cc1ncc(-c2ccncc2/C=C/C(=O)Nc2ccc(CN3CCOCC3)cc2)s1 [Example 151, (2E)-3-(4-(2-methyl-1,3-thiazol-5-yl)pyridin-3-yl)-N-(4-(morpholin-4-ylmethyl)phenyl)acrylamide] | 95 | 95 |  |  | 54 | 
17 | Cn1cc(-c2ccncc2/C=C/C(=O)Nc2cccc(-c3cccnc3)c2)cn1 [Example 182, (2E)-3-(4-(1-methyl-1H-pyrazol-4-yl)pyridin-3-yl)-N-(3-(pyridin-3-yl)phenyl)acrylamide] | 78 | 84 |  |  | 58 | 

Continued, in another order:

Row | inhibition at 1 µM (CDK19 (CDC2L6/CycC)) [%] | inhibition at 1 µM (CDK8/CycC) [%] | Percent inhibition of CDK19 activity (%) (CDK19 (CDC2L6/CycC); 1 µM) | Percent inhibition of CDK8 activity (%) (CDK8/CycC; 1 µM) | SMILES | inhibition at 1 µM [1] [%] | Percent inhibition of RPMI8226 cell growth (%) ([1]; 1 µM)
18 | 98 | 110 |  |  | O=C(/C=C/c1cnccc1-c1cnn(C2CC2)c1)Nc1ccc(CN2CC3(COC3)C2)cc1 [Example 308, (2E)-3-(4-(1-cyclopropyl-1H-pyrazol-4-yl)pyridin-3-yl)-N-(4-(2-oxa-6-azaspiro [3.3]hept-6-ylmethyl)phenyl)acrylamide] | 56 | 
19 | 97 | 96 |  |  | Cn1cc(-c2ccncc2/C=C/C(=O)Nc2ccc(CN3CC4CCC(C3)O4)cc2)cn1 [Example 50, (2E)-3-(4-(1-methyl-1H-pyrazol-4-yl)pyridin-3-yl)-N-(4-(8-oxa-3-azabicyclo[3.2.1]oct-3-ylmethyl)phenyl)acrylamide] | 61 | 
20 | 99 | 98 |  |  | O=C(/C=C/c1cnccc1-c1cnn(CC2CC2)c1)Nc1ccc(CN2CCOCC2)cc1 [Example 45, (2E)-3-(4-(1-(Cyclopropylmethyl)-1H-pyrazol-4-yl)pyridin-3-yl)-N-(4-(morpholin-4-ylmethyl)phenyl)acrylamide] | 55 | 
21 | 74 | 100 |  |  | Cn1cc(-c2ccncc2/C=C/C(=O)Nc2ccc(CN3CCN4CCCC4C3)cc2)cn1 (stereo not drawn) [Example 78, (2E)-N-(4-(hexahydropyrrolo[1,2-a]pyrazin-2(1H)-ylmethyl)phenyl)-3-(4-(1-methyl-1H-pyrazol-4-yl)pyridin-3-yl)acrylamide] | 59 | 
22 |  |  | 100 | 102 | O=C(/C=C/c1cnccc1-c1cnn(C2CC2)c1)Nc1ccc(CN2CC(F)(F)C2)cc1 [Example 377, (2E)-3-(4-(1-Cyclopropyl-1H-pyrazol-4-yl)pyridin-3-yl)-N-(4-((3,3-difluoroazetidin-1-yl)methyl)phenyl)acrylamide hemisuccinate] |  | 66
23 | 98 | 98 |  |  | CN(C)CCc1ccc(NC(=O)/C=C/c2cnccc2-c2cnn(C)c2)cc1 [Example 226, (2E)-N-(4-(2-(dimethylamino)ethyl)phenyl)-3-(4-(1-methyl-1H-pyrazol-4-yl)pyridin-3-yl)acrylamide] | 66 | 
24 | 94 | 101 |  |  | COC(C)(C)Cc1ccc(NC(=O)/C=C/c2cnccc2-c2cnn(C3CC3)c2)cc1 [Example 272, (2E)-3-(4-(1-cyclopropyl-1H-pyrazol-4-yl)pyridin-3-yl)-N-(4-(2-methoxy-2-methylpropyl)phenyl)acrylamide] | 67 | 
25 | 98 | 99 |  |  | O=C(/C=C/c1cnccc1-c1cnn(C2CC2)c1)Nc1ccc2c(ccn2CC(F)(F)F)c1 [Example 266, (2E)-3-(4-(1-Cyclopropyl-1H-pyrazol-4-yl)pyridin-3-yl)-N-(1-(2,2,2-trifluoroethyl)-1H-indol-5-yl)acrylamide] | 57 | 
26 | 97 | 101 |  |  | C[C@@H]1CN(Cc2ccc(NC(=O)/C=C/c3cnccc3-c3cnn(C)c3)cc2)C[C@H](C)O1 [Example 53, (2E)-N-(4-(((2R,65)-2,6-dimethylmorpholin-4-yl)methyl)phenyl)-3-(4-(1-methyl-1H-pyrazol-4-yl)pyridin-3-yl)acrylamide] | 58 | 
27 | 93 | 97 |  |  | O=C(/C=C/c1cnccc1-c1cnn(C2CC2)c1)Nc1ccc(COC(F)F)cc1 [Example 292, (2E)-3-(4-(1-Cyclopropyl-1H-pyrazol-4-yl)pyridin-3-yl)-N-(4-((difluoromethoxy)methyl)phenyl)acrylamide] | 52 | 
